Measured values taken from the METLIN SMRT retention time set (Domingo-Almenara et al. 2019).

Experiment: gradient 5% acetonitrile 3 min, to 50% in 2 min, to 85% in 15 min, held 3 min, 100 µL/min
Settings: column: Zorbax Extend-C18 2.1 x 50 mm; eluents: water / acetonitrile, 0.1% formic acid
In short: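 Each retention time is based on an adduct peak selected computationally and verified by manual inspection. Measurements used HPLC–quadrupole time-of-flight mass spectrometry in positive and negative ionization mode on mixtures of ~100 pure standards. Chromatography ran on a Zorbax Extend-C18 column (2.1 × 50 mm, 1.8 μm) at 100 μL/min with water and acetonitrile, each containing 0.1% formic acid, and dead and dwell volumes of 40 μL and 900 μL.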

| Compound | RP-LC retention time |
| --- | --- |
| COc1ccc(Nc2ncccc2S(N)(=O)=O)cc1 | 712 s |
| Cc1ccc(NS(=O)(=O)c2cc3c(s2)CCN(C(=O)C2CC2)C3)cc1F | 880 s |
| COc1ccc(C(=S)N2CCN(c3ccccc3Cl)CC2)cc1OC | 1260 s |
| COc1cccc(OC)c1C(=O)Nc1nc2c(s1)CCc1ccccc1-2 | 1000 s |
| CCOC(=O)c1cccc(Nc2ncccc2S(N)(=O)=O)c1 | 854 s |
| O=S(=O)(NCC(c1cccnc1)N1CCN(c2ccc(F)cc2)CC1)c1cccs1 (stereo unspecified) | 618 s |
| O=C(Cn1c(=O)oc2ccc(C(=O)N3CCCC3)cc21)N1CCC(Cc2ccccc2)CC1 | 868 s |
| O=C(Nc1ccc(OCC(=O)N2CCCN(c3ncccn3)CC2)nc1)C1CC1 | 612 s |
| CC(C(=O)Nc1cc(F)ccc1F)C1CCN(C(=O)Nc2ccccc2)CC1 (stereo unspecified) | 867 s |
| COCCNC(=O)C1CCc2sc(C(=O)N3CCCCC3)cc2C1 (stereo unspecified) | 651 s |
| COc1ccc(-c2ccc3nc(N4CCC(C(=O)O)CC4)sc3n2)cc1 | 825 s |
| Cc1cnn(Cc2c(C(=O)N3CCc4nn(C)c(=O)n4CC3)noc2C)c1 | 602 s |
| Cc1ccccc1NC(=O)N1CCC(c2cc(N)on2)CC1 | 644 s |
| O=C(Cc1ccccc1F)N1C[C@H]2CNC(=O)[C@]23CCCC[C@@H]13 | 683 s |
| Cn1cc(-c2nc(C(=O)NC3CCCCCC3)cs2)c2cccnc21 | 1040 s |
| COc1ccc(CNC(=O)Cn2c(=O)c(CCC(=O)NCC(C)C)nc3ccccc32)cc1 | 762 s |
| CCOC(=O)c1[nH]c(C)c(CN(Cc2ccc(C)cc2)C(=O)COC)c1C | 684 s |
| CC(C)CC(=O)Nc1ccc(-n2cnc(C(=O)N3CCN(C4CCCCC4)CC3)c2)nc1 | 620 s |
| CS(=O)(=O)N1CCC(C(=O)Nc2ccc(Cl)c(C(F)(F)F)c2)Oc2ccccc21 (stereo unspecified) | 1020 s |
| CCOCCc1c(O)nc(SC)[nH]c1=O | 650 s |
| CN(C)C(=O)c1n[nH]c2c1CN(C(=O)c1ccc(F)cc1F)CC2 | 629 s |

| Compound | RP-LC retention time |
| --- | --- |
| CCC1(CC)NC(=O)N(CC(=O)Nc2ccc(C(=O)OC)cc2)C1=O | 671 s |
| CCC(=O)Nc1ccc2c(c1)CN(C(=O)CCc1ccccc1)C(C(=O)N1CCCC1)C2 (stereo unspecified) | 708 s |
| CCOc1ccc(S(=O)(=O)N2CCC(C(=O)NCCc3ccc(OC)c(OC)c3)CC2)cc1C | 901 s |
| O=C(Nc1cccc(F)c1)C1CCc2nc(N3CCOCC3)ncc2C1 (stereo unspecified) | 778 s |
| CN1CCN(CC2(O)CCC3(CCN(C(=O)c4ccoc4)CC3)CC2)CC1 | 551 s |
| COc1ccc(OC)c(NC(=O)Cn2c(C)cc(-c3nnc(C4CCC4)o3)c2C)c1 | 924 s |
| CSc1cccc(NC(=O)C2CCN(c3nccc(C)n3)CC2)c1 | 700 s |
| CCOC(=O)COc1cc(-c2ccccc2)nc2ccc(NC(=O)C3CC3)cc12 | 738 s |
| Nc1nccn(Cc2ccc(F)cc2F)c1=O | 577 s |
| CO/N=C1/CN(c2nc3c(cc2F)c(=O)c(C(=O)O)cn3C2CC2)CC1CN (stereo unspecified) | 636 s |
| COCc1cn(C2CN(C(=O)c3ccc(OC)nc3)C2)nn1 | 610 s |
| COCCNCc1ccc(-c2cccc(C(F)(F)F)c2)o1 | 662 s |
| CCC(CC)C(=O)Nc1nc(-c2ccc3c(c2)N(C)C(=O)C(C)O3)cs1 (stereo unspecified) | 992 s |
| Cc1ccc(C)c(N2CCN(S(=O)(=O)c3c(C)sc(C)c3-c3cc(C)[nH]n3)CC2)c1 | 1150 s |
| CCc1ccc2nc(Nc3ncc4c(n3)CCCC4=O)nc(C)c2c1 | 650 s |
| COc1cccc(C2CC(c3ccc(C)c(C)c3)=NC3(CCN(C(C)=O)CC3)N2)c1O (stereo unspecified) | 694 s |
| COC(=O)c1cc2c(=O)n(-c3ccc(OC)cc3OC)ccc2nc1C | 803 s |
| Cc1nc(C)c(C(=O)N2CCC(c3noc(-c4ccccn4)n3)C2)s1 (stereo unspecified) | 648 s |
| O=C(NOCC(O)CO)c1cc(Br)c(F)c(F)c1Nc1ccc(I)cc1F (stereo unspecified) | 879 s |
| O=C(NCCc1c[nH]c2ccccc12)c1cc2cccnc2n(Cc2ccccc2F)c1=O | 1080 s |

Further lines, results first:

| RP-LC retention time | Compound |
| --- | --- |
| 616 s | COc1cc2c(cc1OC)C(C(=O)NCc1ccccn1)C1c3ccccc3CCN1C2=O (stereo unspecified) |
| 996 s | CCOc1ccc(S(=O)(=O)N2CCc3c(c(-c4nnc(-c5ccccc5)o4)nn3C)C2)cc1 |
| 826 s | CCN1C(=O)c2cccnc2Sc2cc(NC(=O)c3cccc(OC)c3)ccc21 |
| 919 s | Cc1ccc(CNC(=O)c2c(C)oc3ccn(C)c(=O)c23)cc1 |
| 910 s | Cc1ccc(Cl)cc1S(=O)(=O)NCC(=O)N1CCOC(c2ccccc2)C1 (stereo unspecified) |
| 677 s | O=C(Cc1nnc(-c2ccc3ncccc3c2)o1)NCc1ccc(F)cc1 |
| 1160 s | CCn1nccc1-c1cccc(-c2noc(-c3ccnc(Cl)c3)n2)c1 |
| 961 s | Cc1cccc(NC(=O)Cn2nc(N3CCSCC3)c3ccccc3c2=O)c1 |
| 722 s | COc1ccc(Cc2nnc(NC(=O)c3cnc4ccccc4n3)o2)cc1 |
| 739 s | Cc1ccccc1CNC(=O)c1ccc2c(c1)n(C)c(=O)c1ccnn12 |
| 706 s | Cc1noc(C)c1CNC(=O)c1cc(-c2ccccc2)n[nH]1 |
| 653 s | COc1ccc(-c2cn3c(CC(=O)Nc4ccc(C)cn4)csc3n2)cc1OC |
| 870 s | O=C(Cn1c(=O)c2cc(-c3cccs3)nn2c2ncccc21)Nc1ccc(F)cc1 |
| 743 s | Cc1ccc(-c2ncccc2CNS(=O)(=O)c2ccc(F)c(C)c2)cc1 |
| 931 s | COC(=O)C(Cc1c[nH]c2ccccc12)NC(=O)c1ccc(Br)cc1 (stereo unspecified) |
| 1080 s | O=c1ccn(-c2ccc(Cl)cc2)nc1-c1nc(-c2cccc(Br)c2)no1 |
| 977 s | COc1cccc(-c2nnc(Cc3nc(-c4ccc5c(c4)OCO5)no3)o2)c1 |
| 761 s | Cc1cccc(OCCc2noc(C3CN(Cc4ccc(C)s4)C3)n2)c1 |
| 1290 s | COc1cccc(-n2c(=O)c(C(=O)Nc3ccc(F)cc3Cl)c(O)c3cccnc32)c1 |
| 649 s | CCc1nc2c(c(=O)n1CC(=O)NCc1ccccc1F)CN(Cc1ccccc1)CC2 |
| 999 s | CCC(C)NC(=O)N1CC(Oc2ccccc2-c2nc(-c3ccccc3)no2)C1 (stereo unspecified) |
| 1060 s | CCCn1c(=O)c(C)nc2cc(-c3noc(Cc4ccc(F)cc4)n3)ccc21 |
| 859 s | CC1=C(c2ccc(C)cc2)S(=O)(=O)N=C1N1CCCN(C(=O)c2ccc(F)cc2)CC1 |
| 803 s | COc1ccc2nc(C(=O)NC(C)c3ccccc3)cn2n1 (stereo unspecified) |
| 765 s | CC1CCCN(C(=O)Cn2nc(-c3nc(-c4ccc5c(c4)OCO5)no3)ccc2=O)C1 (stereo unspecified) |
